# Test results from ChEMBL document CHEMBL1146842, “Design, synthesis, and biological evaluations of novel quinolones as HIV-1 non-nucleoside reverse transcriptase inhibitors” (Bioorg Med Chem Lett, 2006).
# Experiments:
# HEK293 = test: Cytotoxicity against HEK293T cells; type: functional; conditions: Homo sapiens
# [1] = system: Human immunodeficiency virus 1; test: Antiviral activity against HIV1 E138K mutant; type: functional, organism-based
# [2] = system: Human immunodeficiency virus 1; test: Antiviral activity against HIV1 F227L mutant; type: functional, organism-based
# [3] = system: Human immunodeficiency virus 1; test: Antiviral activity against HIV1 I135V mutant; type: functional, organism-based
# [4] = system: Human immunodeficiency virus 1; test: Antiviral activity against HIV1 V106A mutant; type: functional, organism-based
# [5] = system: Human immunodeficiency virus 1; test: Antiviral activity against HIV1 Y188L mutant; type: functional, organism-based
# [6] = system: Human immunodeficiency virus 1; test: Antiviral activity against HIV1 V179E mutant; type: functional, organism-based
# [7] = system: Human immunodeficiency virus 1; test: Antiviral activity against HIV1 Y181H mutant; type: functional, organism-based
# [8] = system: Human immunodeficiency virus 1; test: Antiviral activity against HIV1 Y181S mutant; type: functional, organism-based
# [9] = system: Human immunodeficiency virus 1; test: Antiviral activity against HIV1; type: functional, organism-based
# [10] = system: Human immunodeficiency virus 1; test: Antiviral activity against HIV1 K103N mutant; type: functional, organism-based
# [11] = system: Human immunodeficiency virus 1; test: Antiviral activity against HIV1 L100I mutant; type: functional, organism-based
# [12] = system: Human immunodeficiency virus 1; test: Antiviral activity against HIV1 Y181C mutant; type: functional, organism-based
SMILES,CC50 (HEK293) [nM],EC50 [1] [nM],EC50 [2] [nM],EC50 [3] [nM],EC50 [4] [nM],EC50 [5] [nM],EC50 [6] [nM],EC50 [7] [nM],EC50 [8] [nM],EC50 [9] [nM],EC50 [10] [nM],EC50 [11] [nM],EC50 [12] [nM]
"O=C1Nc2ccc(Cl)cc2C(C#CC2CC2)(C(F)(F)F)O1 (single isomer, unassigned) [EFAVIRENZ]",> 10000,2,1,1,4,280,6,2,1,–,–,–,–
CCCCC12CC1(COC)C(=O)Nc1ccc(Cl)cc12 (centres undefined),> 10000,42,20,46,726,> 10000,721,121,2700,45,2920,33,5030
CCCCCC12CC1(C(=O)OCC)C(=O)Nc1ccc(Cl)cc12 (centres undefined),> 10000,18,5,17,238,> 10000,234,16,369,1,669,12,926
CCCCC12CC1(C(=O)CC1CC1)C(=O)Nc1ccc(Cl)cc12 (centres undefined),> 10000,–,–,–,–,–,–,–,–,5690,–,–,–
CCOC(=O)C12CC1(C)c1cc(Cl)ccc1NC2=O (centres undefined),> 10000,–,–,–,–,–,–,–,–,> 10000,–,–,–
CCCCc1c(C(=O)OCC)c(O)nc2ccc(Cl)cc12,> 10000,–,–,–,–,–,–,–,–,166,–,–,–
CCCCC12CC1(C(=O)OCC)C(=O)Nc1ccc(Cl)cc12 (centres undefined),> 10000,47,7,28,279,> 10000,914,9,684,3,884,14,1650
CCCCC12CC1(C(=O)Oc1ccc(C#N)cc1)C(=O)Nc1ccc(Cl)cc12 (centres undefined),> 10000,–,–,–,–,–,–,–,–,1100,–,–,–
CCCCC12CC1(C(=O)Nc1ccncc1)C(=O)Nc1ccc(Cl)cc12 (centres undefined),> 10000,–,–,–,–,–,–,–,–,8260,–,–,–
CCCCC12CC1(C(=O)NCCC(=O)O)C(=O)Nc1ccc(Cl)cc12 (centres undefined),> 10000,–,–,–,–,–,–,–,–,> 10000,–,–,–
CCOC(=O)C12CC1(C1CCCCC1)c1cc(Cl)ccc1NC2=O (centres undefined),> 10000,–,–,–,–,–,–,–,–,> 10000,–,–,–
CCCCC12CC1(C(=O)Nc1ccc(C(N)=O)cc1)C(=O)Nc1ccc(Cl)cc12 (centres undefined),> 10000,–,–,–,–,–,–,–,–,4550,–,–,–
CCCCC12CC1(C(=O)NCC)C(=O)Nc1ccc(Cl)cc12 (centres undefined),> 10000,–,–,–,–,–,–,–,–,747,–,–,–
CCOC(=O)C12CC1(C1CCCC1)c1cc(Cl)ccc1NC2=O (centres undefined),> 10000,–,–,–,–,–,–,–,–,3250,–,–,–
CCCCC12CC1(C(=O)OCC=C(C)C)C(=O)Nc1ccc(Cl)cc12 (centres undefined),> 10000,–,–,–,–,–,–,–,–,2360,–,–,–
CCCCC12CC1(C(=O)CCC)C(=O)Nc1ccc(Cl)cc12 (centres undefined),> 10000,–,–,–,–,–,–,–,–,265,–,–,–
Cc1ccnc2c1NC(=O)c1cccnc1N2C1CC1 [NEVIRAPINE],> 10000,31,148,79,8460,> 10000,116,112,3000,–,–,–,> 10000
CCCCC12CC1(C(=O)Nc1ccccc1C#N)C(=O)Nc1ccc(Cl)cc12 (centres undefined),6090,–,–,–,–,–,–,–,–,1710,–,–,–
C=CCOCC12CC1(CCCC)c1cc(Cl)ccc1NC2=O (centres undefined),> 10000,–,–,–,–,–,–,–,–,240,–,–,–
CCCCC12CC1(COC(C)=O)C(=O)Nc1ccc(Cl)cc12 (centres undefined),> 10000,54,1,64,4720,> 10000,735,59,2350,37,2620,45,7460
C=CCOC(=O)C12CC1(CCCC)c1cc(Cl)ccc1NC2=O (centres undefined),> 10000,32,1,23,1220,> 10000,233,20,932,1,1080,1,2940
CCOC(=O)C12CC1(CC)c1cc(Cl)ccc1NC2=O (centres undefined),> 10000,–,–,–,–,–,–,–,–,5040,–,–,–
CCCCC12CC1(COCC)C(=O)Nc1ccc(Cl)cc12 (centres undefined),> 10000,94,251,74,1120,> 10000,1030,216,4180,65,3960,39,6240
CCCCC12CC1(C(=O)NC(C)C)C(=O)Nc1ccc(Cl)cc12 (centres undefined),> 10000,–,–,–,–,–,–,–,–,2780,–,–,–
C=CCNC(=O)C12CC1(CCCC)c1cc(Cl)ccc1NC2=O (centres undefined),> 10000,–,–,–,–,–,–,–,–,489,–,–,–
CCCCC12CC1(C(=O)OC)C(=O)Nc1ccc(Cl)cc12 (centres undefined),> 10000,8,> 10000,12,57,7340,244,8,581,1,682,4,727
